Where two headings read alike, the source gives them in different places. Each block holds one compound with its values, some of them ahead of it.
How the values were obtained:
Assay type in all cases: cell-based
MCF-7 cells = test: Alamar blue fluorescence viability (IC50), MCF-7
Description: (§1) Cancer Cell Lines: Culturing Conditions and Validation. All cell lines were cultured at 37° C. with 5% CO2. All ERα-positive cell lines were grown in media lacking phenol red. MCF-7 were grown in EMEM with 10% FBS and 1% penicillin-streptomycin (P/S). T47D were cultured in MEM with 10% FBS and 1% P/S. TYS and TDG cells were grown in MEM supplemented with 10% CD-FBS and 1% P/S. HCT-116 and MDA-MB-231 cells were cultured in RPMI-1640 supplemented with 10% FBS and 1% P/S. MDA-MB-436 cells were cultured in DMEM supplemented with 10% FBS and 1% P/S. HT-29 were cultured in McCoy's media supplemented with 10% FBS and 1% P/S. All cell lines were used directly from ATCC stocks and/or have been further authenticated using PowerPlex16HS Assay (Promega) as described previously.^54 In short, >1 million cells were harvested and lysed using the cell lysis buffer (50 mM Tris, 50 mM EDTA, 25 mM sucrose, 100 mM NaCl, 1% SDS, pH 8). DNA extraction and short tandem repeats (STRs) profiling for each cell line were carried out at the University of Arizona Genetics Core (UAGC). Autosomal STR profiles were compared to reference databases such as ATCC, DSMZ, and JCRB.
(§2) Alamar Blue Fluorescence for Anticancer Activity (IC50). 2,000-15,000 cells per well were seeded a 96-well plate. Cells were allowed to adhere before DMSO stock solutions of test compounds were added to each well with a final concentration of DMSO in each well=1%; final volume: 100 μL. At the end of the desired incubation time (e.g., 24 or 72 hours), media in each well was aspirated and new fresh media (no compound, 100 μL) was added. Alamar blue solution (4 mg resazurin per 40 mL PBS) was then added (10 μL). After 2-6 hours incubation, each well's fluorescence (λexcit.=555 nm, λemission.=585 nm) was measured using a SpectraMax M3 plate reader (Molecular Devices). Percent dead was determined by comparison to a 100% dead control: 100 μM raptinal treated cells. Dose dependent curves and IC50 were calculated using Origin Pro V10.

MDA-MB-231 = test: Alamar blue fluorescence viability (IC50), MDA-MB-231; conditions: for Fold Change: Average Fold Change between 24/72 hr IC50 values for MCF-7 and MDA-MB-231; for IC50: MDA-MB-231, ERα negative
Description: as §1, §2

HCT-116 = test: Alamar blue fluorescence viability (IC50), HCT-116; conditions: for Fold Change: Average Fold Change between 24/72 hr IC50 values for MCF-7 and HCT-116; for IC50: HCT-116, ERα negative
Description: as §1, §2

HT-29 = test: Alamar blue fluorescence viability (IC50), HT-29; conditions: for Fold Change: Average Fold Change between 24/72 hr IC50 values for MCF-7 and HT-29; for IC50: HT-29, ERα negative
Description: as §1, §2

[1] = MCF-7, ERα positive, 24 hr, read-out: IC50 24 hr
[2] = MCF-7, ERα positive, 72 hr, read-out: IC50 72 hr
[3] = Homo sapiens, MCF7, MCF-7 cells, 24 hours, Alamar blue, mean ± s.e.m., read-out: IC50

SMILES: O=C1Nc2c(C(F)(F)F)cccc2C1(c1ccc(O)cc1)N1CCCC(F)(F)C1 (centres unmarked)
IC50 (MCF-7 cells; [1]): 39 ± 10 nM
IC50 (MCF-7 cells; [2]): 33 ± 1 nM
Fold Change (MDA-MB-231): 667
IC50 (MDA-MB-231; 24 hr, read-out: IC50 24 hr): 49000 ± 4000 nM
IC50 (MDA-MB-231; 72 hr, read-out: IC50 72 hr): 22000 ± 1000 nM
Fold Change (HCT-116): 636
IC50 (HCT-116; 24 hr, read-out: IC50 24 hr): 38000 ± 4000 nM
IC50 (HCT-116; 72 hr, read-out: IC50 72 hr): 21000 ± 4000 nM
Fold Change (HT-29): 758
IC50 (HT-29; 24 hr, read-out: IC50 24 hr): 29000 ± 1000 nM
IC50 (HT-29; 72 hr, read-out: IC50 72 hr): 25000 ± 3000 nM

SMILES: O=C1Nc2c(C(F)(F)F)cccc2C1(c1ccc(O)cc1)N1CCC(F)(F)C1 (centres unmarked)
IC50 (MCF-7 cells; [1]): 17 ± 1 nM
IC50 (MCF-7 cells; [2]): 22 ± 1 nM
Fold Change (MDA-MB-231): 1455
IC50 (MDA-MB-231; 24 hr, read-out: IC50 24 hr): 51000 ± 5000 nM
IC50 (MDA-MB-231; 72 hr, read-out: IC50 72 hr): 32000 ± 3000 nM
Fold Change (HCT-116): 909
IC50 (HCT-116; 24 hr, read-out: IC50 24 hr): 45000 ± 5000 nM
IC50 (HCT-116; 72 hr, read-out: IC50 72 hr): 20000 ± 6000 nM
Fold Change (HT-29): 1364
IC50 (HT-29; 24 hr, read-out: IC50 24 hr): 35000 ± 6000 nM
IC50 (HT-29; 72 hr, read-out: IC50 72 hr): 30000 ± 5000 nM

SMILES: O=C1Nc2c(C(F)(F)F)cccc2C1(c1ccc(O)cc1)N1CC(F)(F)C1 (centres unmarked)
IC50 (MCF-7 cells; [2]): 117 ± 3 nM

SMILES: O=C1Nc2c(C(F)(F)F)cccc2C1(c1ccc(O)cc1)N1CCC(F)(F)CC1 (racemic) [Compound 2, 3-(4,4-difluoropiperidin-1-yl)-3-(4-hydroxyphenyl)-7-(trifluoromethyl)indolin-2-one]
IC50 (MCF-7 cells; [3]): 35 nM

SMILES: O=C1Nc2c(C(F)(F)F)cccc2[C@@]1(c1ccc(O)cc1)N1CCC(F)CC1 [(R)-22, (R)-3-(4-fluoropiperidin-1-yl)-3-(4-hydroxyphenyl)-7-(trifluoromethyl)indolin-2-one]
anticancer activity against MCF-7 cells (in words) (MCF-7 cells; MCF-7 cells): lack of potent activity

SMILES: O=C1Nc2c(C(F)(F)F)cccc2[C@]1(c1ccc(O)cc1)N1CC(F)(F)C(F)(F)C1 [(S)-26, (S)-3-(4-hydroxyphenyl)-3-(3,3,4,4-tetrafluoropyrrolidin-1-yl)-7-(trifluoromethyl) indolin-2-one]
anticancer activity against MCF-7 cells (in words) (MCF-7 cells; MCF-7 cells): inactive

SMILES: O=C1Nc2c(C(F)(F)F)cccc2C1(c1ccc(OC(F)(F)F)cc1)c1ccc(O)c(F)c1 (centres unmarked) [Compound 5, 3-(3-fluoro-4-hydroxyphenyl)-3-(4-(trifluoromethoxy)phenyl)-7-(trifluoromethyl)indolin-2-one]
IC50 (MCF-7 cells; [3]): 33 nM

SMILES: O=C1Nc2c(C(F)(F)F)cccc2C1(c1ccc(OC(F)(F)F)cc1)c1cc(F)c(O)c(F)c1 (centres unmarked) [Compound 6, 3-(3,5-difluoro-4-hydroxyphenyl)-3-(4-(trifluoromethoxy)phenyl)-7-(trifluoromethyl)indolin-2-one]
IC50 (MCF-7 cells; [3]): > 1000 nM
anticancer activity against MCF-7 cells (in words) (MCF-7 cells; MCF-7 cells): loss of activity

SMILES: O=C1Nc2c(C(F)(F)F)cccc2C1(c1ccc(OC(F)(F)F)cc1)c1ccc(O)cc1F (centres unmarked) [Compound 7, 3-(2-fluoro-4-hydroxyphenyl)-3-(4-(trifluoromethoxy)phenyl)-7-(trifluoromethyl)indolin-2-one]
IC50 (MCF-7 cells; [3]): 177 nM

Continued, in another order:

IC50 (MCF-7 cells; [3]): 549 nM
SMILES: O=C1Nc2c(C(F)(F)F)cccc2C1(c1ccc(OC(F)(F)F)cc1)c1c(F)cc(O)cc1F (centres unmarked) [Compound 8, 3-(2,6-difluoro-4-hydroxyphenyl)-3-(4-(trifluoromethoxy)phenyl)-7-(trifluoromethyl)indolin-2-one]

IC50 (MCF-7 cells; [3]): > 1000 nM
SMILES: O=C1Nc2c(C(F)(F)F)cccc2C1(c1ccc(OC(F)(F)F)cc1)c1ccc(OC(F)(F)F)cc1 [Compound 9, 3,3-bis(4-(trifluoromethoxy)phenyl)-7-(trifluoromethyl)indolin-2-one]
anticancer activity against MCF-7 cells (in words) (MCF-7 cells; MCF-7 cells): lack of activity

IC50 (MCF-7 cells; [3]): 49 nM
SMILES: O=C1Nc2c(C(F)(F)F)cccc2C1(c1ccc(OC(F)(F)F)cc1)c1ccc(O)c(O)c1 (centres unmarked) [Compound 10, 3-(3,4-dihydroxyphenyl)-3-(4-(trifluoromethoxy)phenyl)-7-(trifluoromethyl)indolin-2-one]

IC50 (MCF-7 cells; [3]): > 1000 nM
SMILES: Cc1cc(C2(c3ccc(OC(F)(F)F)cc3)C(=O)Nc3c(C(F)(F)F)cccc32)ccc1O (centres unmarked) [Compound 11, 3-(4-hydroxy-3-methylphenyl)-3-(4-(trifluoromethoxy)phenyl)-7-(trifluoromethyl)indolin-2-one]

IC50 (MCF-7 cells; [3]): > 1000 nM
SMILES: Cc1cc(C2(c3ccc(OC(F)(F)F)cc3)C(=O)Nc3c(C(F)(F)F)cccc32)cc(C)c1O (centres unmarked) [Compound 12, 3-(4-hydroxy-3,5-dimethylphenyl)-3-(4-(trifluoromethoxy)phenyl)-7-(trifluoromethyl)indolin-2-one]

IC50 (MCF-7 cells; [3]): > 1000 nM
SMILES: CC(C)c1cc(C2(c3ccc(OC(F)(F)F)cc3)C(=O)Nc3c(C(F)(F)F)cccc32)cc(C(C)C)c1O (centres unmarked) [Compound 13, 3-(4-hydroxy-3,5-diisopropylphenyl)-3-(4-(trifluoromethoxy)phenyl)-7-(trifluoromethyl)indolin-2-one]

IC50 (MCF-7 cells; [3]): > 1000 nM
SMILES: O=C1Nc2c(C(F)(F)F)cccc2C1(c1ccc(O)cc1)N1CCCCC1 (centres unmarked) [Compound 16, 3-(4-hydroxyphenyl)-3-(piperidin-1-yl)-7-(trifluoromethyl)indolin-2-one]

IC50 (MCF-7 cells; [3]): 70 nM
SMILES: CC1CN(C2(c3ccc(O)cc3)C(=O)Nc3c(C(F)(F)F)cccc32)CCC1(F)F (centres unmarked) [Compound 17, 3-(4,4-difluoro-3-methylpiperidin-1-yl)-3-(4-hydroxyphenyl)-7-(trifluoromethyl)indolin-2-one]

IC50 (MCF-7 cells; [3]): > 1000 nM
SMILES: O=C1Nc2c(C(F)(F)F)cccc2C1(c1ccc(O)cc1)N1CCOCC1 (centres unmarked) [Compound 18, 3-(4-hydroxyphenyl)-3-morpholino-7-(trifluoromethyl)indolin-2-one]

IC50 (MCF-7 cells; [3]): > 1000 nM
SMILES: O=C1Nc2c(C(F)(F)F)cccc2C1(c1ccc(O)cc1)N1CCCCCC1 (centres unmarked) [Compound 19, 3-(azepan-1-yl)-3-(4-hydroxyphenyl)-7-(trifluoromethyl)indolin-2-one]

IC50 (MCF-7 cells; [3]): > 1000 nM
SMILES: O=C1Nc2c(C(F)(F)F)cccc2C1(c1ccc(O)cc1)N1CCC(O)CC1 (centres unmarked) [Compound 20, 3-(4-hydroxyphenyl)-3-(4-hydroxypiperidin-1-yl)-7-(trifluoromethyl)indolin-2-one]

IC50 (MCF-7 cells; [3]): 135 nM
SMILES: O=C1Nc2c(C(F)(F)F)cccc2C1(c1ccc(O)cc1)N1CCC(OC(F)(F)F)CC1 (centres unmarked) [Compound 21, 3-(4-hydroxyphenyl)-3-(4-(trifluoromethoxy)piperidin-1-yl)-7-(trifluoromethyl)indolin-2-one]

IC50 (MCF-7 cells; [1]): 5 ± 1 nM
IC50 (MCF-7 cells; [2]): 4 ± 1 nM
IC50 (MDA-MB-231; 24 hr, read-out: IC50 24 hr): 22000 ± 2000 nM
IC50 (MDA-MB-231; 72 hr, read-out: IC50 72 hr): 14000 ± 1000 nM
IC50 (HCT-116; 24 hr, read-out: IC50 24 hr): 24000 ± 2000 nM
IC50 (HCT-116; 72 hr, read-out: IC50 72 hr): 15000 ± 3000 nM
IC50 (HT-29; 24 hr, read-out: IC50 24 hr): 25000 ± 1000 nM
IC50 (HT-29; 72 hr, read-out: IC50 72 hr): 15000 ± 2000 nM
SMILES: O=C1Nc2c(C(F)(F)F)cccc2C1(c1ccc(O)cc1)N1CC(F)(F)C(F)(F)C1 (centres unmarked) [drawing 36]
Fold Change (MDA-MB-231): 3500
Fold Change (HCT-116): 3750
Fold Change (HT-29): 3750

IC50 (MCF-7 cells; [1]): > 1000 nM
IC50 (MCF-7 cells; [2]): > 1000 nM
SMILES: O=C1Nc2c(C(F)(F)F)cccc2C1(c1ccc(O)cc1)N1CC(F)(F)C(F)(F)C1 (centres unmarked) [drawing 37]

Reference: patent publication US12655104B2, “Anticancer compounds selective for ER-positive cancers” (THE BOARD OF TRUSTEES OF THE UNIVERSITY OF ILLINOIS, priority 2020, dated 2026)
